Results on one compound are retold here after patent publication US20220047569A1, “METHOD AND COMPOUND FOR USE, IN TREATING AND/OR PREVENTING NETOSIS” (Jubilant EpiPad LLC, priority 2020, published 2022).

For one test, the system named is DSS-induced colitis. Nature of the test: Dextran sulfate sodium (DSS) induced colitis model. Format: in vivo, C57BL/6 male mice. The conditions noted are these: PO BID. From the text:
Ulcerative colitis (UC) is an intermittent inflammatory bowel disease of the colonic mucosa, with periods of exacerbated symptoms (the active phase of the disease), and periods that are relatively symptom-free (remission phase of disease). Among various chemical induced colitis models, DSS-induced colitis model is widely used because of its simplicity and many similarities with human ulcerative colitis. C57BL/6 male mice at 6-8 weeks of age were purchased from vivo biotech India (under the license from Taconic). The procedures involving the care and use of animals in the study was reviewed and approved by the Institutional Animal Care and Use Committee (IAEC/JDC/2018-161R) prior to conduct. During the study, the care and use of animals was in accordance with the principles outlined in the Guide for the Care and Use of Laboratory Animals, 8th Edition, 2010 (National Research Council) and every effort was made to minimize suffering. The animals were acclimatized for ˜10 days prior to experimental use. Mice were caged with free access to food and fresh water in a temperature-controlled room (22° C.-24° C.) on a 12 h light/dark cycle. On the day of DSS administration (day 0), labelled (using ear punch or any other convenient method) groups of control and experimental mice should be weighed and, if required, average group weight equilibrated so as to eliminate any significant weight difference between groups. Normal control animals were provided with regular drinking water and disease control animals were provided with 2.25% DSS in drinking water for 5 days (Day 1 to Day 5) and next 5 days, both the groups received regular drinking water (Day 6 to Day 10). DSS was replaced with fresh DSS formulation once in 2.5 days. Animals were dosed with Vehicle (0.5% Methyl cellulose in PBS+0.025% Tween-80), Compound 143, PO, bid and Fingolimod, PO, qd. Administration of 2.25% DSS in drinking water induced significant ulcerative colitis leading to ˜5-fold disease induction in mice of disease control group compared to normal control. […]

Test [1] relates to silica induced lung fibrosis. Nature of the test: Silica induced pro-fibrotic lung model. The conditions noted are these: 50 mg/kg PO, BID, day 7 to 11, therapeutic; silica mice. Format: in vivo, C57BL/6 female mice. The protocol: The instillation of silica into the murine lung results in the development of fibrotic nodules that resemble simple silicotic nodular fibrosis, which develop in humans following some occupational exposures to dust and particulate aerosols. Silica can be delivered to rodents via aerosolization, intratracheal administration or oropharyngeal aspiration. C57BL/6 female mice at an age of 6-8 weeks were instilled with silica particles (2.5 mg/mouse) by non-surgical intratracheal (IT) method. The day of silica instillation was defined as day 0. Test compound was administered twice daily and standard of care was dosed once daily from day 7 to 11 for therapeutic intervention. Animals were monitored and evaluated for their clinical signs and body weight loss. Animals were euthanized on day 11 and the lungs were weighed and biomarkers were analyzed in lung.

The subject of test [2] is NETosis in human neutrophils. The experiment in a line: NETosis assay (SYTOX green, flow cytometry). The conditions noted are these: Neutrophil, two independent NETosis assays, read-out: Average percent inhibition. Format: cell-based. Here is the method: Neutrophils were isolated according to the EasySep Direct Human Neutrophil Isolation Kit. In short, 50 mL of blood sample was drawn in a vacutainer containing K2EDTA from a healthy donor. To the whole blood, the isolation cocktail of 50 μL/mL was added. Then, in the next step 50 μL/mL of RapidSpheres™ was added to the sample. The sample was mixed evenly with the pipette and incubated for 10 minutes at room temperature. After incubation, PBS containing 1 mM EDTA was added at the ratio of 1:1 to the blood. Then the sample tube was incubated for 10 minutes. The enriched cell suspension was transferred into a new tube and RapidSpheres™ were added at 50 μL/mL to this suspension, mixed and incubated for 10 minutes at room temperature. At this step, the enriched cell suspension was carefully collected as a clear fraction into a fresh tube. Then, previous tube was replaced with the fresh tube containing enriched cell suspension. After the final separation, the clear solution of enriched cell suspension was carefully transferred to fresh tube which was ready to use for the experiment. These cells were then subjected to wash twice with plain RPMI 1640 media without Fetal Bovine Serum (FBS) and centrifuged at 1500 rpm for 5 minutes at room temperature. Cell counts were performed on each sample by Invitrogen cell counter. After the cell count, cell density was adjusted according to the experiment and re-suspended in complete RPMI media containing RPMI1640, 2% BSA and 1 mM CaCl2.
Freshly isolated neutrophils from human donor were seeded at a density of 0.5×10^6 cells in 400 μL cell suspension/well in a 24-well plate and cells were pre-incubated with the compound for 30 minutes by adding 50 μL of the 10× concentration to achieve the final 1× concentration of compound (10 μM, 1 μM and 0.1 μM). 1% DMSO was added in control wells. […]
Average percent inhibition for compound 143 was calculated as 2% at 0.1 μM, 30% at 1 μM and 85% at 10 μM in two independent NETosis assays using human neutrophils.

Regarding `N[C@@H]1CCCN(C(=O)c2cc3c4c(c2)nc(-c2cc5cccc(Cl)c5n2CC2CC2)n4CCO3)C1` [Compound 143, (R)-(3-aminopiperidin-1-yl)(2-(7-chloro-1-(cyclopropylmethyl)-1H-indol-2-yl)-3,4-dihydro-5-oxa-1,2a-diazaacenaphthylen-7-yl)methanone], the “Disease reversal compared to disease control” value in the test on DSS-induced colitis (12.5 mg/kg) was 8.7%; in the test with DSS-induced colitis (25 mg/kg) it was 26.6%; with DSS-induced colitis (50 mg/kg), 45.5%. Moreover, in test [1], the Fibronectin level result is on record as “significant decrease”. The Lung weight result in test [1] is reported as “significant decrease”. Further, the inhibition at 0.1 µM in test [2] (at 0.1 μM) came to 2%. For the same compound, the inhibition at 1 µM in test [2] (at 1 μM) turned out to be 30%. Also, in test [2] (at 10 μM), the inhibition at 10 µM is 85%.
